Non-standard residues stand in square brackets, D forms with d. Residues, ends and D or L forms follow the SMILES beside them. *: point of attachment. Sta = CC(C)C[C@H](N)[C@@H](O)CC(=O)O; Isovaleryl = CC(C)CC(=O)*
How the values were obtained:
[1] = biological target: trypsin (porcine, type IX) (Sus scrofa, UniProt P00761); test: biochemical; format: biochemical
L chain clone SK35 = format: binding
L chain clone c23.5 = format: binding
Fv YZ17 [2] = format: binding, mouse
Fv YZ17 [3] = format: biochemical, mouse
L chain GG63 = L chain GG63 (Homo sapiens, UniProt P01834); test: Inhibition of L chain GG63 catalysed PFR-MCA cleavage
trypsin = trypsin (Sus scrofa, UniProt P00761); format: binding, porcine
Chain of trypsin (P00761 9-231): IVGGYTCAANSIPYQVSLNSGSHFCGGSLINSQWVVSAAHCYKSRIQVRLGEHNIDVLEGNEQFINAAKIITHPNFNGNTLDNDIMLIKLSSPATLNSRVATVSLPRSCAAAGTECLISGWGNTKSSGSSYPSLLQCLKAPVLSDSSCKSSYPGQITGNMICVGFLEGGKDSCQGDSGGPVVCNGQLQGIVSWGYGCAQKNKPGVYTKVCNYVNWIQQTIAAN

L chain c23.5 [4] = format: binding
[5] = test system: VIPase antibody fragments; format: biochemical
L chain c23.5 [6] = format: biochemical
L chain hk14 [7] = format: binding
L chain U16 [8] = format: binding, mouse
L chain U16 [9] = format: biochemical, mouse
L chain hk14 [10] = format: biochemical
Fv mRT3 = format: biochemical
Thrombin (human, a) = Thrombin (human, a) (Homo sapiens, UniProt P00734); format: biochemical

Chain of trypsin (porcine, type IX) (P00761 9-231): as above

Compound: N=C(N)c1ccc(C(NC(=O)OCc2ccccc2)P(=O)(Oc2ccccc2)Oc2ccccc2)cc1 (stereo not shown) [Compound 1, Diphenyl N-(benzyloxycarbonyl)amino(4-amidinophenyl)methanephosphonate, reference compound]
- k2, first-order rate constant for formation of covalent adduct [1]: 2.0 min⁻¹
- kapp/[I] [1]: 3703 M⁻¹ s⁻¹
- ΔG of noncovalent enzyme-inhibitor interactions (ΔG=−RTlnKi) [1]: 30.5 kJ/mol

Compound: N=C(N)c1ccc(C(NC(=O)CCCCCNC(=O)CCCC[C@@H]2SC[C@@H]3NC(=O)N[C@@H]32)P(=O)(O)Oc2ccccc2)cc1 (stereo partly shown) [Compound 4, Monophenyl N-[6-(biotinamido)hexanoyl]amino(4-amidinophenyl)methanephosphonate]
- stable adduct formation with L chain SK35 (L chain clone SK35): adducts stable to denaturing treatments were observed
- stable adduct formation with L chain c23.5 (L chain clone c23.5): failed to form stable 4-adduct
- stable adduct formation with Fv YZ17 (Fv YZ17 [2]): adducts stable to denaturing treatments were observed

Compound: NC(=O)CI [Iodoacetamide, iodoacetamide]
- Inhibition, % Iodoacetamide (Fv YZ17 [3]): 4.4%
- Inhibition, % Iodoacetamide (L chain GG63): 5.8%

Compound: N=C(N)c1ccc(C(NC(=O)CCSSCCC(=O)NCCNC(=O)CCCCC2SCC3NC(=O)NC32)P(=O)(Oc2ccccc2)Oc2ccccc2)cc1 (stereo not shown) [Compound 5, Diphenyl-N-[2-(biotinamido)ethylamido-3,3′-dithiodipropionyl]amino(4-amidinophenyl)methanephosphonate]
- kapp/[I] [1]: 0.23 M⁻¹ s⁻¹
- trypsin activity level following gel filtration [1]: 5.0±0.1 FU/h
- trypsin activity level without removal of phosphonate [1]: 6.5±0.2 FU/h
- covalent labeling of trypsin (adducts after denaturing treatment) (trypsin): labeled

Compound: CC(C)CC(=O)N[C@H](C(=O)N[C@H](C(=O)N[C@@H](CC(C)C)[C@@H](O)CC(=O)N[C@@H](C)C(=O)N[C@@H](CC(C)C)[C@@H](O)CC(=O)O)C(C)C)C(C)C [Pepstatin A, pepstatin A] (Isovaleryl-VV[Sta]A[Sta]-OH)
- Inhibition, % Pepstatin A (Fv YZ17 [3]): 1.2 (2.9) %
- Inhibition, % Pepstatin A (L chain GG63): 0.2 (1.3) %

Compound: N=C(N)c1ccc(C(NC(=O)OCc2ccccc2)P(=O)(O)Oc2ccccc2)cc1 (stereo not shown) [Compound 2, Monophenyl N-(benzyloxycarbonyl)amino(4-amidinophenyl)methanephosphonate]
- Ki [1]: 5.2 mM
- kinact/KI ([1]; read-out: k2/Ki): 1.5 M⁻¹ s⁻¹

Compound: phenylphosphonate 4-nitrophenyl [N-(6-biotinylhexanediamin-1-yl)carboxymethyl]tropan-3-ol diester [diester II]
- II labeling of monomer L chain, % of the Fv level (L chain c23.5 [4]): 18%
- irreversibility of peptidase inhibition after removal of free inhibitor by gel filtration [5]: did not restore the catalytic activity
- inhibition of cleavage of PFR-MCA (L chain c23.5 [6]): 83%
- II labeling of monomer L chain, % of the Fv level (L chain hk14 [7]): 33%
- II labeling of monomer L chain, % of the Fv level (L chain U16 [8]): 51%
- inhibition of cleavage of PFR-MCA (L chain U16 [9]): 79%
- inhibition of cleavage of PFR-MCA (L chain hk14 [10]): 71%
- inhibition of cleavage of PFR-MCA (Fv mRT3): 92%

Compound: c1cnc2c(c1)ccc1cccnc12 [Phenanthroline, phenanthroline]
- Inhibition, % Phenanthroline (Fv YZ17 [3]): 0.2%
- inhibition at 10000 µM (L chain GG63; read-out: Inhibition, % Phenanthroline): 0.6%

Compound: N=C(N)c1ccc(C(NC(=O)CCSSCCC(=O)NCCNC(=O)CCCCC2SCC3NC(=O)NC32)P(=O)(O)Oc2ccccc2)cc1 (stereo not shown) [Compound 3, Monophenyl-N-[2-(biotinamido)ethylamido-3,3′-dithiodipropionyl]amino(4-amidinophenyl)methanephosphonate]
- irreversible inhibition of YZ17 activity (Fv YZ17 [3]): inhibition of activity despite dilution
- inhibition of trypsin activity after pretreatment and dilution [1]: 85%
- inhibition of trypsin without pretreatment [1]: no inhibition
- inhibition of trypsin-catalyzed EAR-MCA hydrolysis [1]: 9.9-80%
- irreversibility of trypsin inhibition [1]: irreversible
- k3, first-order rate constant for decomposition of Ei-I [1]: ~0
- trypsin activity level following gel filtration [1]: 27.6±2.6 FU/h
- trypsin activity level without removal of phosphonate [1]: 33.2±2.6 FU/h
- trypsin activity of adduct isolated by gel filtration after incubation in buffer [1]: 50.2±7.0 FU/h
- covalent labeling of trypsin (adducts after denaturing treatment) (trypsin): labeled
- irreversible inhibition of thrombin activity (Thrombin (human, a)): inhibition of activity despite dilution

Source: US6855804B2, “Covalently reactive transition state analogs and methods of use thereof” (Board of Regents, The University of Texas System, priority 1998, dated 2005)
